The record followed here is article PMC8492687, “An ethylene biosynthesis enzyme controls quantitative variation in maize ear length and kernel yield” (Nature Communications, 2021).

This assay has as its target T1, ZmACO2 (Zea mays, UniProt A0A804UDP7).
T1 construct: gene LOC100382364
The assay can be described thus: ethylene production by gas chromatography with flame-ionization detection. The assay is classed as biochemical. The settings on record: 5 mM ascorbate, 20 mM bicarbonate, 0.02 mM iron sulfate, 1 mM DTT, 10% glycerol, MOPS pH 7.2, 30 °C; ACC varied, Michaelis-Menten fit drawn.

Each structure is given as a SMILES string.

T1 sequence (A0A804UDP7 1-326): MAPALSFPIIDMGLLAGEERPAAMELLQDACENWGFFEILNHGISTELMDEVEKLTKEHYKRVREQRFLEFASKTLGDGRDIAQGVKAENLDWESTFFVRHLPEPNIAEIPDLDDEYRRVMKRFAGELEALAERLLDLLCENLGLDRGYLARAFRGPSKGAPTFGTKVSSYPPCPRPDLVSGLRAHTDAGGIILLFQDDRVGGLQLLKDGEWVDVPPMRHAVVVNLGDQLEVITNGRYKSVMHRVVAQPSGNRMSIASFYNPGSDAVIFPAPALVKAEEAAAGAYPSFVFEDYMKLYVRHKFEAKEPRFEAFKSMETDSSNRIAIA

On to `NC1(C(=O)O)CC1` [ACC], for which the “ethylene production by gas chromatography with flame-ionization detection” value was “The amount of ethylene production catalyzed by ZmACO2 increased exponentially up to an ACC concentration”.
